Data: the NIST ThermoML archive (doi:10.1021/je9005097)
± gives the expanded uncertainty stated by the source.

How the values were obtained:
[1] = Crystal; DTA
[2] = Molar enthalpy of transition or fusion; conditions: Crystal; DSC

Normal melting temperature [1]: 305.5 ± 1 °C
Molar enthalpy of transition or fusion [2]: 9.13 ± 0.263 kcal/mol
Compound: Oc1cc(O)c2cc1Cc1cc(c(O)cc1O)Cc1cc(c(O)cc1O)Cc1cc(c(O)cc1O)C2
